# Data: patent publication US20240287093A1, “HIGH ACTIVITY STING PROTEIN AGONIST” (ADLAI NORTYE BIOPHARMA CO., LTD., priority 2018, published 2024)
# Tests used:
# Type in all cases: cell-based
# [1] = target: T1, STING variants (WT) (Homo sapiens, UniProt Q86WV6); experiment: SEAP reporter assay in HEK-Blue ISG KO-STING cells transfected with STING WT variant (Method 2, 1 ng vector); conditions: compound concentration 2.5 (mM as printed); 24 h; SEAP signal ratio to 0.5% DMSO
# T1 construct: host or cells: HEK-Blue ISG KO-STING cells (Invivogen, hkb-kostg)
# Excerpt: (§1) Example II: STING Variants (WT & HAQ) Activation by Compounds in HEK-Blue™ ISG KO-STING Cells (Method 2)
# (§2) Activation of STING can be determined using a SEAP reporter assay in HEK-Blue™ ISG KO-STING cells (Invivogen, cat #hkb-kostg) transfected with plasmids expressing STING variants (WT & HAQ) (referred to WO2017/175147A1). STING variants (WT & HAQ) vector were constructed based on STING-232H vector (Origene, RC208418). GFP vector (VT2069) was bought from Youbio. The detailed protocol as follows: HEK-Blue™ ISG KO-STING cells were harvest and seeding into 96 well plate and the final cell number was 0.8×10^5 cells/well. Transfections were prepared using Lipofectamine 2000 (Invitrogen, Cat #11668-027) following the manufacturer's instructions (Lipo2000:DNA=1:10), 20 ul of transfection suspension containing 1 ng (WT variant) or 0.0625 ng (HAQ variant) STING vector was added to cell culture plate and incubated at 37° C., 5% CO2 for 24 h. After 24 hours incubation, compounds were added at proper concentration, the final DMSO concentration was 0.5%. After 24h incubation, the supernatant was collected to detect SEAP signal using Great EscAPe SEAP chemiluminescence KIT (Clontech, cat #631738) and cells were collected to detect cell viability using CellTiter-Glo Luminescent Cell Viability Assay(Promega, cat #G7573) following the manufacturer's instructions. The data were described by the ratio of the stimulating signal of compounds to 0.5% DMSO.
# [2] = target: T2, STING variants (HAQ) (Homo sapiens, UniProt Q86WV6, G230A/R293Q/R71H); experiment: SEAP reporter assay in HEK-Blue ISG KO-STING cells transfected with STING HAQ variant (Method 2, 0.0625 ng vector); conditions: compound concentration 5 (mM as printed); 24 h; SEAP signal ratio to 0.5% DMSO
# T2 construct: host or cells: HEK-Blue ISG KO-STING cells (Invivogen, hkb-kostg)
# T2 sequence (Q86WV6 whole entry R71H/G230A/R293Q): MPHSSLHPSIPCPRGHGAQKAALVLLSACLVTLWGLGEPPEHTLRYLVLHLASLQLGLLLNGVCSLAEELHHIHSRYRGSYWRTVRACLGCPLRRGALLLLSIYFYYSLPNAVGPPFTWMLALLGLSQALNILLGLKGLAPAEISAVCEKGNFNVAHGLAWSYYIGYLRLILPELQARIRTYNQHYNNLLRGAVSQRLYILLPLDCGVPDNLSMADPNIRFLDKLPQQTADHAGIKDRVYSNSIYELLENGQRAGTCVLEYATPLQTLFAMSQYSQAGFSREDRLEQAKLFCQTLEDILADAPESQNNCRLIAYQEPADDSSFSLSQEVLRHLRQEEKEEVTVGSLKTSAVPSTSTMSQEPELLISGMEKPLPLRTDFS
# Excerpt: as §1, §2
# [3] = target: T3, STING (Homo sapiens, UniProt Q86WV6, G230A/H232R/R293Q/R71H); experiment: IFNβ release from THP1 by STING activation (hIFNβ ELISA); conditions: THP1 cells, 24 h, IFN-β in supernatant; inactive = IFNβ not detected at the maximum concentration of compounds
# T3 construct: THP1 was purchased from National Collection of Authenticated Cell Cultures (Cat #TCHu 57); host or cells: THP1
# T3 sequence (Q86WV6 whole entry R71H/G230A/H232R/R293Q): as the sequence (Q86WV6 whole entry R71H/G230A/R293Q) above, with H232R counted along it
# In short: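 THP1 cells from log-phase culture, suspended at 2×10^6 cells/ml, were treated with an 8-point, 3-fold compound series (0.2% DMSO final) for 24 h at 37°C, 5% CO2. Secreted IFN-β in supernatant was quantified by human IFNβ ELISA, and EC50 was obtained by curve fitting.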
Compound,"Fold change related to DMSO control, WT [1] [fold]","Fold change related to DMSO control, HAQ [2] [fold]",EC50 [3] [µM],"hIFNβ ELISA (EC50, μM) [3]"
"CCn1nc(C)cc1C(=O)Nc1nc2cc(C(N)=O)cc3c2n1CC(F)(F)CO3 [Example 53, 1-(1-Ethyl-3-methyl-1H-pyrazole-5-carboxamido)-8,8-difluoro-8,9-dihydro-7H-6-oxa-2,9a-diazabenzo[cd]azulene-4-carboxamide]",1.53,2.42,> 22.7,–
"CCn1nc(C)c(Cl)c1C(=O)Nc1nc2cc(C(N)=O)cc3c2n1[C@@H](C(C)C)CO3 [Example 55, (S)-2-(4-chloro-1-ethyl-3-methyl-1H-pyrazole-5-carboxamido)-3-isopropyl-3,4-dihydro-5-oxa-1,2a-diazaacenaphthylene-7-carboxamide]",1.38,2.96,–,inactive
"CCn1nc(C)cc1C(=O)Nc1nc2cc(C(N)=O)cc3c2n1C[C@H](C)CO3 [Example 71, (S)-1-(1-Ethyl-3-methyl-1H-pyrazole-5-carboxamido)-8-methyl-8,9-dihydro-7H-6-oxa-2,9a-diazabenzo[cd]azulene-4-carboxamide]",2.97,18.10,> 17.6,–
"CCn1nc(C)cc1C(=O)Nc1nc2cc(C(N)=O)cc3c2n1CC1(CC1)CO3 [Example 61, 1-(1-ethyl-3-methyl-1H-pyrazole-5-carboxamido)-7H,9H-6-oxa-2,9a-diazaspiro[benzo[cd]azulene-8,1′-cyclopropan]-1,2a,3,5-tetraene-4-carboxamide]",1.90,8.67,> 16.7,–
"CC[C@H]1COc2cc(C(N)=O)cc3nc(NC(=O)c4c(F)c(C)nn4CC)n1c23 [Example 47, (S)-3-Ethyl-2-(1-ethyl-4-fluoro-3-methyl-1H-pyrazole-5-carboxamido)-3,4-dihydro-5-oxa-1,2a-diazaacenaphthylene-7-carboxamide]",6.91,27.64,> 5.2,–
"CCn1nc(C)c(Br)c1C(=O)Nc1nc2cc(C(N)=O)cc3c2n1[C@@H](C(C)C)CO3 [Example 56, (S)-2-(4-Bromo-1-ethyl-3-methyl-1H-pyrazole-5-carboxamido)-3-isopropyl-3,4-dihydro-5-oxa-1,2a-diazaacenaphthylene-7-carboxamide]",1.16,1.17,–,inactive
